# Molecular target: [^3H]gabapentin site in porcine cortical membranes (Sus scrofa, UniProt O77773)
# Assay: [3H]gabapentin binding site competition in porcine cortical membranes
# Details: read-out: IC50 arithmetic mean (N = 3) ± S.E.M., binding affinity for the [3H]gabapentin site, mean of n = 3 ± S.E.M.
# Sequence of [^3H]gabapentin site in porcine cortical membranes (O77773 25-1091): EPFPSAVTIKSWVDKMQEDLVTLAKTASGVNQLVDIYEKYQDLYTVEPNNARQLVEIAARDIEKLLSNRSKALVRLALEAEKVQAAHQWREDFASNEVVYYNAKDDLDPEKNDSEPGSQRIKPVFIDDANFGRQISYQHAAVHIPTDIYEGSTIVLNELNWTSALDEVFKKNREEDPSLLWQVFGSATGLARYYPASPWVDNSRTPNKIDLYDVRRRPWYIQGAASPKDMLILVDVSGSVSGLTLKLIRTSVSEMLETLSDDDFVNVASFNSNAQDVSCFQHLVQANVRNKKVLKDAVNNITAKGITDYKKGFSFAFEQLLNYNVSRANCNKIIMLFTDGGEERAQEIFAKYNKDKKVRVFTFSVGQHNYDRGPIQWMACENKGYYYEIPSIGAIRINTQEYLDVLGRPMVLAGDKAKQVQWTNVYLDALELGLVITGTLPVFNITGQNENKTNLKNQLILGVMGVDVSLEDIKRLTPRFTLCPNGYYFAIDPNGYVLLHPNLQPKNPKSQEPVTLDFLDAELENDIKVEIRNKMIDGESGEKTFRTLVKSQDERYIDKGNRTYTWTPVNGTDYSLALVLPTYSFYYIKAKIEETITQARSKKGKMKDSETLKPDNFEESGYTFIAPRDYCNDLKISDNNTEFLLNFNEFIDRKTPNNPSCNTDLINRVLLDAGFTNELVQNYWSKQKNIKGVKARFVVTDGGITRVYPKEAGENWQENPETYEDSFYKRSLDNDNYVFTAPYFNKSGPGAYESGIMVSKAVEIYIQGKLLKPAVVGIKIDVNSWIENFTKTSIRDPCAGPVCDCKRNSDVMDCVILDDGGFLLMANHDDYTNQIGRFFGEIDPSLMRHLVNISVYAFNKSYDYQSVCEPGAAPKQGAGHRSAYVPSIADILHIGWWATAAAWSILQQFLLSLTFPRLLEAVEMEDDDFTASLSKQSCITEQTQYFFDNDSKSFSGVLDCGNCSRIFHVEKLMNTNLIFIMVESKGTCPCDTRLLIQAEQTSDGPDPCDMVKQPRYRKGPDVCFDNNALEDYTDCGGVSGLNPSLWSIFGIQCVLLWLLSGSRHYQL
row,Structure (SMILES),IC50 [nM]
1,CC[C@@H](C)[C@H](N)C(=O)O [L-Allo-Isoleucine],32.8 ± 6
2,CC[C@H](C)[C@H](N)C(=O)O [L-Isoleucine],68.8 ± 1.9
3,CC(C)C[C@H](N)C(=O)O [L-Leucine],61.3 ± 20.9
4,CSCC[C@H](N)C(=O)O [L-Methionine],49.6 ± 10
5,CCCC[C@H](N)C(=O)O [L-Norleucine],23.6 ± 6.7
6,N[C@@H](Cc1ccccc1)C(=O)O [L-Phenylalanine],351 ± 89
7,CC(C)[C@H](N)C(=O)O [L-Valine],330 ± 18

# Source: patent publication US6783952B1, “Secreted soluble α2δ-2, α2δ-3 or α2δ-4 calcium channel subunit polypeptides and screening assays using same” (Warner-Lambert Company, priority 1999, dated 2004)
